Series [1] has as its system C57BL/6 mice with cuprizone induced demyelination. Description: Cuprizone induced demyelination / re-myelination model (rotarod, immunofluorescence, electron microscopy). It counts as in vivo, mouse. The procedure: Cuprizone at 0.2% induces demyelination in the corpus callosum by 3 weeks, with maximum demyelination at 5-6 weeks. 8-week-old C57BL/6 mice purchased from Jackson Laboratories or 8-week old Mgat5^+/− C57BL/6 mice were treated with 0.2% Cuprizone (Sigma) mixed into milled rodent chow for 6 weeks for the active phase treatment and 5 weeks for the recovery treatment. During active phase treatment, GIcNAc (1 mg/mL) in drinking water or just drinking water (control) was provided for the last 3 weeks of Cuprizone treatment. For the recovery phase treatment, GIcNAc in drinking water or control was provided after Cuprizone treatment had been stopped. Mice were anesthetized and underwent cardiac perfusion with 4% paraformaldehyde in PBS or 4% paraformaldehyde plus 0.5% glutaraldehyde in Sodium cacodylate buffer for immunofluorescence or electron microscopic analysis respectively. Brains were then fixed overnight in perfusion solution
One day prior to Cuprizone treatment, mice were trained on the rotarod by allowing them to run three 5-minute trials at a constant 30 rotations per minute (RPM). Mice then underwent weekly testing during Cuprizone and GIcNAc treatment on an accelerating rotarod starting at 4 rpm increasing to 40 rpm over 5 minutes. Latency for mice to fall was recorded. If a mouse was not running on the rotarod by holding on for 3 turns, this was considered a fall. For the active phase treatment, one trial was run every week. For the recovery phase treatment, 3 trials were run for each mouse each week and latencies were averaged. As expected with Cuprizone treatment performance degraded as treatment progressed.
For neural stem cell (NSC) immunofluorescence, whole neurospheres were seeded onto laminin-coated coverslips (Neuvitro) in proliferation medium. After 24 hours, proliferation media was removed and replaced with differentiation medium (same components as proliferation medium but excluding EGF, bFGF, and heparin) to induce differentiation. For analysis of mouse brains, brains were incubated in 30% sucrose for at least 72 hours, embedded in OCT (Tissue-tek), frozen for at least 48 hours at −80° C., and then cut at 40 microns on a cryostat. Multiple sections from −1 bregma to −2.5 bregma were then stained with antibodies for MBP (1:100; MAB386, Millipore), Olig2 (1:200; AB9610, Millipore), CC1 (1:100; OP90, Millipore), degraded MBP (1:200, AB5864, Millipore) and Amyloid Precursor Protein (APP, 1:200; clone 22C11). After overnight incubation with primary antibody, tissues were washed and incubated with secondary antibodies: goat anti-rat Alexa-fluor 488 (1:200, Thermofisher), goat anti-rabbit TxRd (1:200, Thermofisher). APP is a marker for neuro-axonal damage while co-staining for CC1 and Olig2 are markers of mature oligodendrocytes. In order to examine the amount of myelin, slices were incubated in Fluoromyelin (1:300; F34651, Thermofisher) for 45 minutes. Images were acquired on a Keyence fluorescence microscope. Mean fluorescence intensity of the medial corpus callosum was measured using ImageJ.
Three mice from each treatment group (control and GIcNAc) were selected randomly for EM analysis (before other investigations were performed). Portions of these brains from 0 to −1 bregma were rinsed in 0.1 M cacodylate buffer overnight and again for 15 min. the next day. 2×1 mm blocks of the corpus callosum were dissected out and post-fixed with 1% osmium tetroxide in 0.1 M cacodylate buffer for 1 hour, rinsed in ddH20, dehydrated in increasing serial dilutions of ethanol (70%, 85%, 95%, 100%×2) for 10 min each, put in propylene oxide (intermediate solvent) for 2×10 min, incubated in propylene oxide/Spurr's resin (1:1 mix) for 1 h, and then in Spurr's resin overnight. The blocks were put in a fresh change of resin in flat embedding molds the next day and polymerized overnight at 60° C. The blocks were sectioned at 1 μm using a Leica Ultracut UCT ultramicrotome. […]

For series [2], the system named is MS patients. Description: Open-label Phase 1 trial of oral GIcNAc in MS: safety, tolerability, relapse rate. It counts as in vivo, human. The procedure:
Based on its immunomodulatory effects, a FDA approved (IND 122235) dose escalation was carried out, open-label NIH funded Phase 1 mechanistic clinical trial of oral GIcNAc in MS patients (RRMS and PMS) on glatiramer acetate and not in acute relapse, with the primary endpoint an increase in N-glycan branching in T cells. This endpoint was used as a surrogate marker for GIcNAc's biological activity. Three doses were evaluated: 1 g TID (3 g total, n=13), 2 g TID (6 g total, n=18) and 4 g TID (12 g total, n=16). Subjects had baseline blood drawn weekly four times, then started on oral GIcNAc with 4 weekly blood draws (FIG. 8A).
The annualized relapse rate on GIcNAc in the combined group was 0.277 (from a single relapse in a subject on the 6 g dose).

For series [3], the system named is MS patients. Description: Phase 1 trial: serum neurofilament light chain (Nfl), single molecule array immunoassay. The conditions noted are these: subjects with elevated baseline Nfl from all three dose groups, week 3 and 4 of treatment, p=0.0045, n=18. It counts as in vivo, human. The method, then:
Comparison of the change in serum Nfl concentration in subjects with elevated baseline levels (combined from the 3 g, 6 g, and 12 g cohorts) showing change from pre-GIcNAc to during weeks 3-4 of GIcNAc treatment. The four data points pre-GIcNAc (black dots) and the two data points from week 3 and 4 during GIcNAc treatment are averaged, normalized to pre-GIcNAc levels and shown as black and red dots connected by black lines for each subject, respectively. Nfl was measured by an ultra sensitive single molecule array immunoassay. P-value by 1-tailed Wilcoxon matched-pairs signed rank test.
Neurons exclusively express Nfl and release it when damaged, with high serum Nfl levels (>˜40 pg/ml) serving as a robust biomarker for ongoing neuro-axonal damage in MS. This analysis was done blinded by Jens Kuhle (University of Basel), who has published extensively on Nfl in MS.

[4] abbreviates: GIcNAc only after cuprizone stopped, wildtype 2 weeks, Mgat5+/- 1 or 4 weeks.
Where [5] appears, read: Mgat5+/- mice, 4 weeks GIcNAc after 5 weeks cuprizone.
The mark [6] stands for this setting: wildtype mice, GIcNAc during final 3 weeks of 6-week cuprizone exposure.

This note sets out measurements from patent publication US20240415858A1, “PROMOTING MYELINATION BY N-ACETYLGLUCOSAMINE AND MODULATION OF N-GLYCAN BRANCHING” (THE REGENTS OF THE UNIVERSITY OF CALIFORNIA, priority 2021, published 2024).

Entries after “also recorded” stand apart in the source; their conditions may differ.

For the compound `CC(=O)N[C@H]1C(O)O[C@H](CO)[C@@H](O)[C@@H]1O` (stereo partly shown) [GIcNAc, N-acetylglucosamine], in series [1] (setting [4]), the “degraded MBP (dMBP)/myelin degeneration in the corpus callosum” value was “reducing”, the “levels of MBP in the corpus callosum” value is given as “enhanced”, the “levels of myelin (fluoromyelin) in the corpus callosum” value is on record as “enhanced” and the “mature oligodendrocytes (CC1 Olig2+) in the corpus callosum” value is recorded as “enhanced”. Besides, in series [1] (setting [5]), the “axon loss (electron microscopy)” value was “reducing”; the “degree of myelination (g-ratio, electron microscopy)” value is “enhanced”; the “number of degenerating and dystrophic/swollen axons (electron microscopy)” value was “reducing”; the “number of myelinated axons (electron microscopy)” value is listed as “enhanced”. In addition, the “number of paranodes (electron microscopy)” value in series [1] (setting [5]) is on record as “enhanced”. In series [1] (Mgat5+/- mice, recovery phase), the “increase in fluoromyelin staining, 4 versus 1 week of GIcNAc treatment” value is on record as about 2 fold. Besides, the “motor function (rotarod fall latency)” value in series [1] (wildtype mice, GIcNAc during final 3 weeks of 6-week cuprizone (0.2%) exposure) is reported as “prevented loss of motor function”. In series [1] (setting [6]), the “MBP levels in the corpus callosum” value was “increasing” and the “axonal damage (accumulation of amyloid precursor protein, APP) in the corpus callosum” value is recorded as “reducing”. Besides, the “annualized relapse rate on GIcNAc” value in series [2] (combined group, a single relapse in a subject on the 6 g dose) was 0.277. In addition, the “subjects with mild GI symptoms (gas, bloating, loose stool)” value in series [2] (oral, 12 g per day (4 g TID)) is reported as about 50%. Moreover, the “discontinuation due to GI symptoms” value in series [2] (oral, all doses) is “No subject discontinued”. In addition, the safety result in series [2] (oral, all doses (3 g, 6 g, 12 g per day), 4 weeks) is listed as “safe”. The “subjects with mild GI symptoms (gas, bloating, loose stool)” value in series [2] (oral, the other doses (3 g, 6 g per day)) is listed as “not”. The “serum Nfl levels” value in series [3] is reported as “significantly reduced; also recorded: reduces”.
